Results as given in patent publication US20050203065A1, “Method of treating ischemia reperfusion injury using adenosine receptor antagonists” (priority 2002, published 2005).
Read-outs that look alike come from different tables or passages of the source. Values belong to the compound of their own block, whether it stands above or below them.

Experiments:
[1] = target: T1, recombinant canine A2a adenosine receptors (Canis lupus familiaris, UniProt P11617); assay: Radioligand competition binding, canine A2a receptor (3H-ZM 241385), transfected HEK 293 membranes
T1 construct: expressed in transfected cells
T1 sequence (P11617 whole entry): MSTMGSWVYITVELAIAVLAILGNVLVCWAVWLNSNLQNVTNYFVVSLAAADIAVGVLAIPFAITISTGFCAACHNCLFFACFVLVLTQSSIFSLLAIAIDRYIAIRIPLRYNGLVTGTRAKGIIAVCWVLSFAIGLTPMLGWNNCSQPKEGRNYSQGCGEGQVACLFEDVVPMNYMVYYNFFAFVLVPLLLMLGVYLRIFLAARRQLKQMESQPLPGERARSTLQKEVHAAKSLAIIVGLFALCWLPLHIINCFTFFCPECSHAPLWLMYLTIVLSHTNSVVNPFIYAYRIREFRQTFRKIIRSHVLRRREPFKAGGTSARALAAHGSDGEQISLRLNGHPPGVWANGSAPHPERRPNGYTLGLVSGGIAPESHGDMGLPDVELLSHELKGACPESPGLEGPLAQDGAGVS
Procedure: Membranes (40-70 μg membrane protein), radioligands, and varying concentrations of competing ligands were incubated in triplicate in 0.1 ml buffer HE plus 2 units/mL adenosine deaminase for 2.5 hours at 21° C. […] Nonspecific binding was measured in the presence of 10 μM 5′N ethylcarboxamidoadenosine (NECA, from RBI-Sigma, Natick, Mass.) for A1 and A2b receptors, or 10 μM xanthine amino congener (XAC, from RBI-Sigma, Natick, Mass.) for A2a receptors. Binding assays were terminated by filtration over Whatman GF/C glass fiber filters using a BRANDEL cell harvester (Gaithersburg, Md.).

[2] = tested on: open-chest, barbital-anesthetized dogs; assay: Protocol I (pretreatment): 60 minutes of coronary artery occlusion and 3 hours of reperfusion in dogs
Procedure: (§2) The studies were performed in open-chest, barbital-anesthetized dogs instrumented to measure heart rate, blood pressure, left ventricular pressure, and regional myocardial blood flow (radioactive microspheres). A mechanical occluder was placed around a proximal portion of the left anterior descending coronary artery to produce ischemia and reperfusion. At the end of the experiments, infarct size was determined-by histochemical staining (patent blue dye and triphenyltetrazolium) and expressed as a percentage of the region at risk or as a percentage of the entire left ventricle.
In the pretreatment protocol (see FIG. 1, protocol I), the dogs were subjected to 60 minutes of coronary artery occlusion and 3 hours or reperfusion after which the hearts were removed and infarct size was assessed. […] All of the antagonists were administered at a dose of 1 mg/kg as an i.v. bolus followed by and infusion of 10 μg/kg/min continued until immediately before reperfusion (70 minutes total).

[3] = tested on: open-chest, barbital-anesthetized dogs; assay: Protocol III (reperfusion): 60 minutes occlusion and 3 hours reperfusion, drug from 10 minutes before release of occlusion, dogs; type: in vivo, dog; conditions: for Infarct size expressed as a percentage of the risk region, in words: administration during the early phase of reperfusion
Procedure: as §2
In the reperfusion protocol (see FIG. 3, protocol III), the dogs were subjected to 60 minutes of coronary artery occlusion followed by three hours of reperfusion. […] The antagonists were administered at a dose of 1 mg/kg i.v. bolus followed by an infusion of 10 μg/kg/min for one hour.

[4] = target: T2, recombinant human A3 adenosine receptors (Homo sapiens, UniProt P0DMS8); assay: Radioligand binding, human A3 receptor ([125I]-AB-MECA), incl. one-point binding at 10 μM; conditions: read-out: Percent (%) Inhibition at 10 μM Antagonist, A3
T2 construct: expressed in transfected cells; host or cells: HEK 293
T2 sequence (P0DMS8 1-318): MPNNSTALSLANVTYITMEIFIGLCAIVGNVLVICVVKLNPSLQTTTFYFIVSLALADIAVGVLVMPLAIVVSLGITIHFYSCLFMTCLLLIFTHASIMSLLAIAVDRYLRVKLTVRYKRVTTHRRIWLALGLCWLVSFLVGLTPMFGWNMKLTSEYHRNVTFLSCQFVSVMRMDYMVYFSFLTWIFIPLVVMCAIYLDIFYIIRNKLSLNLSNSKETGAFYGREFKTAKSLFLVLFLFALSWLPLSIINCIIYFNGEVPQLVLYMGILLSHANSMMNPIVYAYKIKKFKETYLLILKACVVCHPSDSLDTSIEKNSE

[5] = target: T3, recombinant canine A1 adenosine receptors (Canis lupus familiaris, UniProt P11616); assay: Radioligand competition binding, canine A1 receptor (3H-CPX), transfected HEK 293 membranes
T3 construct: expressed in transfected cells
T3 sequence (P11616 1-326): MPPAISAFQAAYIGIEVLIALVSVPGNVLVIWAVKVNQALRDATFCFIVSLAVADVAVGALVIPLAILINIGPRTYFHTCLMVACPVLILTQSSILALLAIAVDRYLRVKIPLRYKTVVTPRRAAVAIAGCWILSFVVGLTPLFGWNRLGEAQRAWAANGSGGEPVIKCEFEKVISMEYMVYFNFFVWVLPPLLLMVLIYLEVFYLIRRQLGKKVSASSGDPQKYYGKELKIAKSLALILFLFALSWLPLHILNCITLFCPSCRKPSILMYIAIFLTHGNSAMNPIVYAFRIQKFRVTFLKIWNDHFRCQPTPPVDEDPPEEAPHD
Procedure: (§1) Membranes (40-70 μg membrane protein), radioligands, and varying concentrations of competing ligands were incubated in triplicate in 0.1 ml buffer HE plus 2 units/mL adenosine deaminase for 2.5 hours at 21° C. The radioligands used for competitive binding assays were: [^3H]-8-cyclopentyl-1,3-dipropyxanthine ([^3H]-DPCPX) (NEN, Boston, Mass.) for A1 and A2b adenosine receptors, [^3H]-4-(2-[7-amino-2-(furyl)(1,2,4)triazole(2,3-a)(1,3,5)triazin-5-ylaminoethyly)phenol ([^3H] ZM241385) for A2a adenosine receptors (Tocris, Bristol, UK), and [^125Iodine]-labeled N6-(4-aminobenzyl)-9-(5-(methylcarbonyl)-β-D-ribofuranosyl) adenine ([^125I]-AB-MECA) or [^3H]-R-N^6-phenylisopropyladenosine (H^3R]-R-PIA) for A3 adenosine receptors (both from NEN, Boston, Mass.). Nonspecific binding was measured in the presence of 10 μM 5′N ethylcarboxamidoadenosine (NECA, from RBI-Sigma, Natick, Mass.) for A1 and A2b receptors, or 10 μM xanthine amino congener (XAC, from RBI-Sigma, Natick, Mass.) for A2a receptors. Binding assays were terminated by filtration over Whatman GF/C glass fiber filters using a BRANDEL cell harvester (Gaithersburg, Md.).

[6] = tested on: open-chest, barbital-anesthetized dogs; assay: Protocol II (preconditioning): four 5-minute occlusion/reperfusion cycles before 60-minute occlusion and 3 hours reperfusion in dogs; type: in vivo, dog; conditions: for Effect on the protective effects of ischemic preconditioning: 1 mg/kg i.v. bolus + 10 μg/kg/min
Procedure: Preconditioning was elicited by four 5-minute occlusion/5-minute reperfusion cycles produced 10 minutes before the 60-minute occlusion.

[7] = target: T4, recombinant canine A3 adenosine receptors (Canis lupus familiaris, UniProt Q28309); assay: Radioligand competition binding, canine A3 receptor (R-PIA), transfected HEK 293 membranes; conditions: mean ± SEM, n = 3
T4 construct: expressed in transfected cells
T4 sequence (Q28309 1-314): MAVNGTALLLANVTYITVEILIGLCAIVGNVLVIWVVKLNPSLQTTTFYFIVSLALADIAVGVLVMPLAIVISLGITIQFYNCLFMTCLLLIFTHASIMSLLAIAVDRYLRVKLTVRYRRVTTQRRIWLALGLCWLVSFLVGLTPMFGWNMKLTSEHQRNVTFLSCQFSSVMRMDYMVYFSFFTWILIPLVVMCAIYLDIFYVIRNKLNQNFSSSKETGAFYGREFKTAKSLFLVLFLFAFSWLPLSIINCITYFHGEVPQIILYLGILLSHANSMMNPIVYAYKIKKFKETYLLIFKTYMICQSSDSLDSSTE
Procedure: as §1, with “Md.). The-filters were rinsed three times with 3-4 mL ice-cold 10 mM Tris-HCl, pH 7.4 and 5 mM magnesium chloride (MgCl2) at 4° C., and were counted in a Wallac β-counter (Perkin Elmer, Boston, Mass.).” for “Md.).”

[8] = target: T5, human A2B adenosine receptors (Homo sapiens, UniProt P29275); assay: Radioligand competitive binding, ADENOSINE A2B (HEK293), [3H]-DPCPX (Table 8); parameters: purchased Receptor Biology; host or cells: HEK 293; conditions: [3H]-DPCPX 30-40 nM
T5 sequence (P29275 1-332): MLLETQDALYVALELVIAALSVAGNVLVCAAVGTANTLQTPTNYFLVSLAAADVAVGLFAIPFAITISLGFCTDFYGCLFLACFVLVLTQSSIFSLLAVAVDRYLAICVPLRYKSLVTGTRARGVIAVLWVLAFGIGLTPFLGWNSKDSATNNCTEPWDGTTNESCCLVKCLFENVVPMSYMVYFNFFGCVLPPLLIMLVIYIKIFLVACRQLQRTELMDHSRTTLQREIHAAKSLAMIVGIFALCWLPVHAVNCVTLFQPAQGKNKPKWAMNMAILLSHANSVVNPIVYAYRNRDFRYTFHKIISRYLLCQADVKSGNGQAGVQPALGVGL
Procedure: Membranes (50 μg membrane protein), radioligands, and varying concentrations of competing ligands were incubated in triplicate in 0.1 mL buffer HE plus 2 units/mL adehosine, deaminase for 2 hours at 21° C. The radioligand used for competitive binding assays for human A2B adenosine receptors was [^3H]-8-cyclopentyl-1,3-dipropyxanthine ([^3H]-DPCPX, 30-40 nM) (NEN, Boston, Mass.). Nonspecific binding was measured in the presence of 10 μM 5′N-ethylcarboxamidoadenosine (NECA; from RBI-Sigma, Natick, Mass.). Binding assays were terminated by filtration over Whatman GF/C glass fiber filters using a BRANDEL cell harvester (Gaithersburg, Md.). The filters were rinsed three times with 3 to 4 mL ice-cold 10 mM Tris-HCl, pH 7.4 and 5 mM magnesium chloride (MgCl2) at 4° C. and were counted in a Wallac β-counter (Perkin Elmer, Boston, Mass.).
Competitive binding data were fit to a single site binding model and plotted using Prizm GraphPad. The Cheng-Prusoff equation KI=IC50/(1+[I]/KD) was used to calculate KI values from IC50 values, where KI is the affinity constant for the competing ligand, [I] is the concentration of the free radioligand, and KD is the affinity constant for the radioligand (Cheng and Prusoff 1973).

Ki ([1]; canine, mean ± SEM, n = 3, 3H-ZM 241385, read-out: Ki, A2a): 2820 nM
inhibition at 10 µM [4]: 40.6%
Ki ([5]; canine, mean ± SEM, n = 3, 3H-CPX, read-out: Ki, A1): 35.8 ± 4 nM
Ki [7]: 19100 nM
Structure (SMILES): CCCn1c(=O)c2[nH]c([C@H]3C[C@@H]4C[C@H]3[C@H]3O[C@@H]43)nc2n(CCC)c1=O [BG 9719, 8-(2S-5,6-exo-epoxy-endo-norborn-2-yl)-1,3-dipropyl-3,7-dihydro-purine-2,6-dione]
Relationship between infarct size and transmural collateral blood flow compared to control group [2]: similar
Infarct size expressed as a percentage of the risk region, in words [3]: no protective effect
Effect on the protective effects of ischemic preconditioning ([6]; Protocol II): did not block

Ki [8]: 14.6 nM
Structure (SMILES): CCCn1c(=O)c2[nH]c(C3C4CC5C(C4CCCN(C)C)C53)nc2n(CCC)c1=O (centres unmarked) [Compound 1]

Ki [8]: 15.2 nM
Structure (SMILES): CCCn1c(=O)c2[nH]c(C34CCC(OCC(=O)O)(CC3)C4)nc2n(CCC)c1=O [Compound 2]

Ki [8]: 45.1 nM
Structure (SMILES): CCCn1c(=O)c2[nH]c(C34CCC(O[C@@H](C)C(=O)O)(CC3)CC4)nc2n(CCC)c1=O [Compound 5]

Ki [8]: 47 nM
Structure (SMILES): CCCn1c(=O)c2[nH]c(C34CCCC(O)(CC3)CC4)nc2n(CCC)c1=O [Compound 6]

Ki [8]: 76.9 nM
Structure (SMILES): CCCn1c(=O)c2[nH]c(C34CCC(O)C(CC3)C4)nc2n(CCC)c1=O (centres unmarked) [Compound 9]

Ki [8]: 93 nM
Structure (SMILES): CCCn1c(=O)c2[nH]c(C3CC4CCC(C3)C4NCC(=O)OCC)nc2n(CCC)c1=O (centres unmarked) [Compound 11]

Ki [8]: 117 nM
Structure (SMILES): CCCn1c(=O)c2[nH]c(C34CCC(/C=C/C(=O)O)(CC3)OC4)nc2n(CCC)c1=O [Compound 13]

Ki [8]: 125 nM
Structure (SMILES): CCCn1c(=O)c2[nH]c(C34CCC(OCCC(=O)O)(CC3)C4)nc2n(CCC)c1=O [Compound 14]

Ki [8]: 168 nM
Structure (SMILES): CCCn1c(=O)c2[nH]c(C34CCCC(OCC(=O)O)(CC3)CC4)nc2n(CCC)c1=O [Compound 18]

The next lines start with the compound.

Structure (SMILES): CCCn1c(=O)c2[nH]c(C3CCCC3)nc2n(CCC)c1=O [CPX, 8-Cyclopentyl-1,3-dipropyl-3,7-dihydro-purine-2,6-dione]
Ki [1]: 162 ± 22 nM
Relationship between infarct size and transmural collateral blood flow compared to control group [2]: shifted downward
Infarct size (percentage of risk region or of left ventricle) compared with control, in words ([2]; 1 mg/kg i.v. bolus + 10 μg/kg/min from 10 minutes before occlusion): significantly smaller
Infarct size reduction ([2]; 1 mg/kg i.v. bolus + 10 μg/kg/min from 10 minutes before occlusion, vs control): 51%
Infarct size expressed as a percentage of the entire left ventricle, in words [3]: a significant reduction in infarct size was not observed
Relationship between infarct size and collateral blood flow compared to control group [3]: shifted downward
Reduction in infarct size (percentage of the risk region) ([3]; 1 mg/kg i.v. bolus + 10 μg/kg/min for one hour from 10 minutes before release of occlusion): 42%
Infarct size expressed as a percentage of the risk region, in words [3]: reduced significantly
Ki [5]: 18.1 ± 4.4 nM
Addition to the protective effect of ischemic preconditioning ([6]; Protocol II): added to the protective effect
Relationship between infarct size and collateral blood flow compared to preconditioned control ([6]; Protocol II (preconditioning)): shifted downward further
Effect on the protective effects of ischemic preconditioning ([6]; Protocol II): did not block
Ki [7]: 1960 nM

Structure (SMILES): CCCn1c(=O)c2[nH]c(-c3ccc(C#N)cc3)c(O)c2n(CCC)c1=O [Compound 3]
Ki [8]: 27 nM

Structure (SMILES): CCCn1c(=O)c2[nH]c(C34CCC(CN(C)C)(CC3)CC4)nc2n(CCN)c1=O [Compound 4]
Ki [8]: 39 nM

Structure (SMILES): CCCn1c(=O)c2[nH]c(C34CCC(CCC(=O)O)(CC3)CC4)nc2n(CCC)c1=O [Compound 7]
Ki [8]: 51.4 nM

Structure (SMILES): CCCn1c(=O)c2[nH]c(C34CCC(CN)(CC3)CC4)nc2n(CCC)c1=O [Compound 8]
Ki [8]: 55.2 nM

Structure (SMILES): CCCn1c(=O)c2nc(C34CCC(CCC(=O)Nc5nnn[nH]5)(CC3)CC4)[nH]c2n(CCC)c1=O [Compound 10]
Ki [8]: 85.6 nM

Structure (SMILES): CCCn1c(=O)c2[nH]c(C34CCC(/C=C/C(=O)O)(CC3)CC4)nc2n(CCC)c1=O [Compound 12]
Ki [8]: 100 nM

Structure (SMILES): CCCn1c(=O)c2nc(C34CCC(CCCC(=O)O)(CC3)CC4)[nH]c2n(CCC)c1=O [Compound 15]
Ki [8]: 127 nM

Structure (SMILES): CCCn1c(=O)c2nc(C34CCC(C5=NOC(C(=O)O)C5)(CC3)CC4)[nH]c2n(CCC)c1=O (centres unmarked) [Compound 16]
Ki [8]: 131 nM

Structure (SMILES): CCCn1c(=O)c2[nH]c(C34CCC(CCc5nnn[nH]5)(CC3)CC4)nc2n(CCC)c1=O [Compound 17]
Ki [8]: 160 nM
